According to ChEMBL document CHEMBL4340528, “Profiling withanolide A for therapeutic targets in neurodegenerative diseases” (Bioorg Med Chem, 2019):

Columns and labels:
[1] = target: MKI67 FHA domain-interacting nucleolar phosphoprotein (Homo sapiens) (UniProt Q9BYG3); details: A549, Lysate
Description: Binding affinity to MKI67 in human A549 cells lysates grown on SILAC media at 10 uM incubated for 1 hr by LC-MS/MS analysis relative to untreated control

[2] = target: Glutamate--cysteine ligase regulatory subunit (Homo sapiens) (UniProt P48507); details: A549, Lysate
Description: Binding affinity to GCLM in human A549 cells lysates grown on SILAC media at 10 uM incubated for 1 hr by LC-MS/MS analysis relative to untreated control

[3] = target: Sarcoplasmic/endoplasmic reticulum calcium ATPase 2 (Homo sapiens) (UniProt P16615); details: A549, Lysate
Chain of Sarcoplasmic/endoplasmic reticulum calcium ATPase 2 (Homo sapiens) (P16615 whole entry): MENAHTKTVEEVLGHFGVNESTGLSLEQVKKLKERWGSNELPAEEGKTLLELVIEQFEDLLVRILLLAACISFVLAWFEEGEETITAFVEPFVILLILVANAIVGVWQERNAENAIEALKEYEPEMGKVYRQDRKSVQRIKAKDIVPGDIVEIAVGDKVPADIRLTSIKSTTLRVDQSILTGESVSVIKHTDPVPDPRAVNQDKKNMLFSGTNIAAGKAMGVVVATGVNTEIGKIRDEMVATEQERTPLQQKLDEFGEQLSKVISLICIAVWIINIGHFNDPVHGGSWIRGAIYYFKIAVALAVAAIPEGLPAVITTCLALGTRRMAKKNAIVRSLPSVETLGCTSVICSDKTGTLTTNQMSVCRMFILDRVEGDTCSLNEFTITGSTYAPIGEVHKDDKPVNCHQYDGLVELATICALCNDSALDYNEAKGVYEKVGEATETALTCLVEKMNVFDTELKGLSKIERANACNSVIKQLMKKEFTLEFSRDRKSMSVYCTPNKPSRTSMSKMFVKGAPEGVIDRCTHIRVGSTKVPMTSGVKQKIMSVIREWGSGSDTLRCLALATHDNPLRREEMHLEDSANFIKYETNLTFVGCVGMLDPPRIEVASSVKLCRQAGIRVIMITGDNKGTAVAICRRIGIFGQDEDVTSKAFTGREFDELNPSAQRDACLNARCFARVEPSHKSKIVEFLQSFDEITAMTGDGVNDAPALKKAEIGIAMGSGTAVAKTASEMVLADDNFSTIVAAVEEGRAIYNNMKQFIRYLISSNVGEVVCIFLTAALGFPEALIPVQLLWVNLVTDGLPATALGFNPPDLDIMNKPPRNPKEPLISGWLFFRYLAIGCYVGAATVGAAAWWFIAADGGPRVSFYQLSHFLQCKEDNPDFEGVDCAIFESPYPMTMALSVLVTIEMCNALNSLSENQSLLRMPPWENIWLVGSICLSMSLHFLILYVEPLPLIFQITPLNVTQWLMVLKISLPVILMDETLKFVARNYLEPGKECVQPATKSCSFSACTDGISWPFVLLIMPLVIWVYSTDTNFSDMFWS
Description: Binding affinity to ATP2A2 in human A549 cells lysates grown on SILAC media at 10 uM incubated for 1 hr by LC-MS/MS analysis relative to untreated control

[4] = target: Transcription intermediary factor 1-beta (Homo sapiens) (UniProt Q13263); details: A549, Lysate
Description: Binding affinity to TRIM28 in human A549 cells lysates grown on SILAC media at 10 uM incubated for 1 hr by LC-MS/MS analysis relative to untreated control

[5] = target: Aldo-keto reductase family 1 member C2 (Homo sapiens) (UniProt P52895); details: A549, Lysate
Description: Binding affinity to AKR1C2 in human A549 cells lysates grown on SILAC media at 10 uM incubated for 1 hr by LC-MS/MS analysis relative to untreated control

[6] = target: Mitochondrial carrier homolog 2 (Homo sapiens) (UniProt Q9Y6C9); details: A549, Lysate
Description: Binding affinity to MTCH2 in human A549 cells lysates grown on SILAC media at 10 uM incubated for 1 hr by LC-MS/MS analysis relative to untreated control

[7] = target: Heat shock protein beta-1 (Homo sapiens) (UniProt P04792); details: A549, Lysate
Description: Binding affinity to HSPB1 in human A549 cells lysates grown on SILAC media at 10 uM incubated for 1 hr by LC-MS/MS analysis relative to untreated control

[8] = target: Cytochrome b5 type B (Homo sapiens) (UniProt O43169); details: A549, Lysate
Description: Binding affinity to CYB5B in human A549 cells lysates grown on SILAC media at 10 uM incubated for 1 hr by LC-MS/MS analysis relative to untreated control

[9] = target: Keratin, type II cuticular Hb1 (Homo sapiens) (UniProt Q14533); details: A549, Lysate, pooled result: one value given for 5 cell lines, strains, targets or settings
Description: Binding affinity to KRT81 in human A549 cells lysates grown on SILAC media at 10 uM incubated for 1 hr by LC-MS/MS analysis relative to untreated control

[10] = target: Isocitrate dehydrogenase [NADP] cytoplasmic (Homo sapiens) (UniProt O75874); details: A549, Lysate
Description: Binding affinity to IDH1 in human A549 cells lysates grown on SILAC media at 10 uM incubated for 1 hr by LC-MS/MS analysis relative to untreated control

[11] = target: Mitochondrial import receptor subunit TOM40 homolog (Homo sapiens) (UniProt O96008); details: A549, Lysate
Chain of Mitochondrial import receptor subunit TOM40 homolog (Homo sapiens) (O96008 whole entry): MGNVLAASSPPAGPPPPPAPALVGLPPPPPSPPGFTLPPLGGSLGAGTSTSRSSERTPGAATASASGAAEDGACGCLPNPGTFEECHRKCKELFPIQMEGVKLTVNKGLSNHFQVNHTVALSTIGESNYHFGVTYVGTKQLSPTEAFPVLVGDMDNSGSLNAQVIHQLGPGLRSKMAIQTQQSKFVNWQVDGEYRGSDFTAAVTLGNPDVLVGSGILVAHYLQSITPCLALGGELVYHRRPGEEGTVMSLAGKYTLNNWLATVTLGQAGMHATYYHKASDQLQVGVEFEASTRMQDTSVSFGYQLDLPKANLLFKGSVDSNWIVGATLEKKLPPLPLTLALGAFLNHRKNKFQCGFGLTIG
Description: Binding affinity to TOMM40 in human A549 cells lysates grown on SILAC media at 10 uM incubated for 1 hr by LC-MS/MS analysis relative to untreated control

[12] = target: Glucocorticoid receptor (Homo sapiens) (UniProt P04150); details: A549, Lysate
Chain of Glucocorticoid receptor (Homo sapiens) (P04150 whole entry): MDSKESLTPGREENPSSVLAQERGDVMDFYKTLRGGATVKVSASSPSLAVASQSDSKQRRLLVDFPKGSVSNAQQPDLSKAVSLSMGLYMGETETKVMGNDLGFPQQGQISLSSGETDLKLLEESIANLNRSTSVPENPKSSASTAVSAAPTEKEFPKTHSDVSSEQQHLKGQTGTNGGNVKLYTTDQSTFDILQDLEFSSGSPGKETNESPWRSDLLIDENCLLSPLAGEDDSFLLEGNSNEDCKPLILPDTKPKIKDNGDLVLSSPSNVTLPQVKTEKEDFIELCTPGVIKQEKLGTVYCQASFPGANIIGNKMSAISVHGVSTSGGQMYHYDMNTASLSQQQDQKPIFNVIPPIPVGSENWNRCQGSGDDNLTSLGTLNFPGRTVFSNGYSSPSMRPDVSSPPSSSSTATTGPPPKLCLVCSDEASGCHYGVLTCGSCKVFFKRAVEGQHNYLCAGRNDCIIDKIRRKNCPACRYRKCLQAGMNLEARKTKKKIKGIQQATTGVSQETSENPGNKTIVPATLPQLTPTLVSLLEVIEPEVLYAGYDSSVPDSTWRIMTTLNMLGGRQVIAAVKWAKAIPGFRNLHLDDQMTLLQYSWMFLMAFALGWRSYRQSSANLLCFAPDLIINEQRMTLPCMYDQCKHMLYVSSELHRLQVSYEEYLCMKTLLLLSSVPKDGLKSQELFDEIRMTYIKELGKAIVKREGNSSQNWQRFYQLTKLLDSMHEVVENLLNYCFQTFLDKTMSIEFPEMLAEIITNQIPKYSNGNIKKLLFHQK
Description: Binding affinity to NR3C1 in human A549 cells lysates grown on SILAC media at 10 uM incubated for 1 hr by LC-MS/MS analysis relative to untreated control

[13] = target: Non-selective voltage-gated ion channel VDAC3 (Homo sapiens) (UniProt Q9Y277); details: A549, Lysate
Chain of Non-selective voltage-gated ion channel VDAC3 (Homo sapiens) (Q9Y277 whole entry): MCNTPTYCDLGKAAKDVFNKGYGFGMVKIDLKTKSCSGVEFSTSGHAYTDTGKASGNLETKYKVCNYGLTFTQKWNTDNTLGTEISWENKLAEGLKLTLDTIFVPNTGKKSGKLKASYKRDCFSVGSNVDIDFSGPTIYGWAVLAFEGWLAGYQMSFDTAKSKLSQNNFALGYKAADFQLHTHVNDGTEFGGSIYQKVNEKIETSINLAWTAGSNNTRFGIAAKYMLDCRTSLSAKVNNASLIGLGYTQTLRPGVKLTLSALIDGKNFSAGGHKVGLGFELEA
Description: Binding affinity to VDAC3 in human A549 cells lysates grown on SILAC media at 10 uM incubated for 1 hr by LC-MS/MS analysis relative to untreated control

[14] = target: Serine/threonine-protein kinase greatwall (Homo sapiens) (UniProt Q96GX5); details: A549, Lysate
Description: Binding affinity to MASTL in human A549 cells lysates grown on SILAC media at 10 uM incubated for 1 hr by LC-MS/MS analysis relative to untreated control

[15] = target: WD repeat and HMG-box DNA-binding protein 1 (Homo sapiens) (UniProt O75717); details: A549, Lysate
Description: Binding affinity to WDHD1 in human A549 cells lysates grown on SILAC media at 10 uM incubated for 1 hr by LC-MS/MS analysis relative to untreated control

[16] = target: Cytoskeleton-associated protein 4 (Homo sapiens) (UniProt Q07065); details: A549, Lysate
Chain of Cytoskeleton-associated protein 4 (Homo sapiens) (Q07065 whole entry): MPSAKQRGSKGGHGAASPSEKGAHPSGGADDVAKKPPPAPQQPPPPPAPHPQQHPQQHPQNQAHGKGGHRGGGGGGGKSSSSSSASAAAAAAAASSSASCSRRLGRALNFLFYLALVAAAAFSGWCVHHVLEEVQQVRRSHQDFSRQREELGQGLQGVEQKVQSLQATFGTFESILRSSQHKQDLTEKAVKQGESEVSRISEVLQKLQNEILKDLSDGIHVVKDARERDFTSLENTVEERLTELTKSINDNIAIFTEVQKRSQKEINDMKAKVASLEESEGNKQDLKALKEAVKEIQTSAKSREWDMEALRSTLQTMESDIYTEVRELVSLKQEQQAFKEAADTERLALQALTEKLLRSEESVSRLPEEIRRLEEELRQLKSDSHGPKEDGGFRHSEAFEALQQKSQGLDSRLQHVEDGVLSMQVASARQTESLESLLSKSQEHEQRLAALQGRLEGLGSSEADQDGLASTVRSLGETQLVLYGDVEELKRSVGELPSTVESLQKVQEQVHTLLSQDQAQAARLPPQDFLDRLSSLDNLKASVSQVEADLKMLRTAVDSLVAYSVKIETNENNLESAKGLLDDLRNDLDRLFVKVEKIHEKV
Description: Binding affinity to CKAP4 in human A549 cells lysates grown on SILAC media at 10 uM incubated for 1 hr by LC-MS/MS analysis relative to untreated control

SH-SY5Y [17] = assay: Induction of neurite outgrowth in human SH-SY5Y cells assessed as increase in neurite length of more than 50 micrometer by measuring cell differentiation at 1 uM incubated for 6 days by Giemsa staining based phase contrast microscopic analysis relative to control; format: functional
[18] = target: Non-selective voltage-gated ion channel VDAC2 (Homo sapiens) (UniProt P45880); details: A549, Lysate
Chain of Non-selective voltage-gated ion channel VDAC2 (Homo sapiens) (P45880 whole entry): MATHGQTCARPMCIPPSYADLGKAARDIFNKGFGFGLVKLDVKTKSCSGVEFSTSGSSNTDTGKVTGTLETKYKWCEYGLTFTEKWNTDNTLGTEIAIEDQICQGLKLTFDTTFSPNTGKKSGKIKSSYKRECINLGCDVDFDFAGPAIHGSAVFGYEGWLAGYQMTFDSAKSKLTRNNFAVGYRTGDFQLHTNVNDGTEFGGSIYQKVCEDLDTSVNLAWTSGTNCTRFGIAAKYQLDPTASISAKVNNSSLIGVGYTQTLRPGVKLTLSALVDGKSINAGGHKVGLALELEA
Description: Binding affinity to VDAC2 in human A549 cells lysates grown on SILAC media at 10 uM incubated for 1 hr by LC-MS/MS analysis relative to untreated control

SH-SY5Y [19] = assay: Induction of neurite outgrowth in human SH-SY5Y cells assessed as increase in neurite length of more than 50 micrometer by measuring cell differentiation at 1 uM in presence of dexamethasone incubated for 6 days by Giemsa staining based phase contrast microscopic analysis relative to control; format: functional
[20] = target: Glutathione S-transferase 3, mitochondrial (Homo sapiens) (UniProt O14880); details: A549, Lysate
Description: Binding affinity to MGST3 in human A549 cells lysates grown on SILAC media at 10 uM incubated for 1 hr by LC-MS/MS analysis relative to untreated control

[21] = target: Heterogeneous nuclear ribonucleoprotein F (Homo sapiens) (UniProt P52597); details: A549, Lysate
Description: Binding affinity to HNRNPF in human A549 cells lysates grown on SILAC media at 10 uM incubated for 1 hr by LC-MS/MS analysis relative to untreated control

[22] = target: Polyubiquitin-B (Homo sapiens) (UniProt P0CG47); details: A549, Lysate, pooled result: one value given for 5 cell lines, strains, targets or settings
Description: Binding affinity to UBB in human A549 cells lysates grown on SILAC media at 10 uM incubated for 1 hr by LC-MS/MS analysis relative to untreated control

[23] = target: Aldehyde dehydrogenase 1A1 (Homo sapiens) (UniProt P00352); details: A549, Lysate
Description: Binding affinity to ALDH1A1 in human A549 cells lysates grown on SILAC media at 10 uM incubated for 1 hr by LC-MS/MS analysis relative to untreated control

SH-SY5Y [24] = assay: Induction of neurite outgrowth in human SH-SY5Y cells assessed as increase in neurite length of more than 50 micrometer by measuring cell differentiation at 1 uM in presence of mifepristone incubated for 6 days by Giemsa staining based phase contrast microscopic analysis relative to control; format: functional
[25] = target: Antigen peptide transporter 1 (Homo sapiens) (UniProt Q03518); details: A549, Lysate
Description: Binding affinity to TAP1 in human A549 cells lysates grown on SILAC media at 10 uM incubated for 1 hr by LC-MS/MS analysis relative to untreated control

[26] = target: T1, 1,25-dihydroxyvitamin D(3) 24-hydroxylase, mitochondrial (Homo sapiens, UniProt Q07973); assay: Binding affinity to CYP24A1 in human A549 cells lysates grown on SILAC media at 10 uM incubated for 1 hr by LC-MS/MS analysis; format: subcellular, Lysate; details: a549, 1 h
T1 sequence (Q07973 whole entry): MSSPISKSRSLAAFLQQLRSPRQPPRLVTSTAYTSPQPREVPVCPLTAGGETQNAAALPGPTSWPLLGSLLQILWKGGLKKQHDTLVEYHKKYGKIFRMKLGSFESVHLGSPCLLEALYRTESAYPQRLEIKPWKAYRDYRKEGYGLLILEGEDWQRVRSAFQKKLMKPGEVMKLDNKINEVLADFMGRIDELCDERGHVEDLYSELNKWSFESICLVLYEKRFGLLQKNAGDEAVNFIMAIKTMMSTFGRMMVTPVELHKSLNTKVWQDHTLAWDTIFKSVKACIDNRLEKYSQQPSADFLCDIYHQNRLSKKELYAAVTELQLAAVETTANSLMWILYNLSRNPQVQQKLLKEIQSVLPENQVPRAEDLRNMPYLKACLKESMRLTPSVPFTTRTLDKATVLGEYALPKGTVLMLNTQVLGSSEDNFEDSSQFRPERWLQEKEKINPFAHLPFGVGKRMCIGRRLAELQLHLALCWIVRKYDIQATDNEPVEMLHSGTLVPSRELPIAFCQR

[27] = target: Carnitine O-palmitoyltransferase 1, liver isoform (Homo sapiens) (UniProt P50416); details: A549, Lysate
Description: Binding affinity to CPT1A in human A549 cells lysates grown on SILAC media at 10 uM incubated for 1 hr by LC-MS/MS analysis relative to untreated control

[28] = target: Prostaglandin E synthase 2 (Homo sapiens) (UniProt Q9H7Z7); details: A549, Lysate
Description: Binding affinity to PTGES2 in human A549 cells lysates grown on SILAC media at 10 uM incubated for 1 hr by LC-MS/MS analysis relative to untreated control

[29] = target: NPC intracellular cholesterol transporter 1 (Homo sapiens) (UniProt O15118); details: A549, Lysate
Description: Binding affinity to NPC1 in human A549 cells lysates grown on SILAC media at 10 uM incubated for 1 hr by LC-MS/MS analysis relative to untreated control

[30] = target: von Willebrand factor (Homo sapiens) (UniProt P04275); details: A549, Lysate
Description: Binding affinity to VWF in human A549 cells lysates grown on SILAC media at 10 uM incubated for 1 hr by LC-MS/MS analysis relative to untreated control

[31] = target: Heme oxygenase 2 (Homo sapiens) (UniProt P30519); details: A549, Lysate
Description: Binding affinity to HMOX2 in human A549 cells lysates grown on SILAC media at 10 uM incubated for 1 hr by LC-MS/MS analysis relative to untreated control

[32] = target: Trifunctional enzyme subunit beta, mitochondrial (Homo sapiens) (UniProt P55084); details: A549, Lysate
Description: Binding affinity to HADHB in human A549 cells lysates grown on SILAC media at 10 uM incubated for 1 hr by LC-MS/MS analysis relative to untreated control

[33] = target: Neutral cholesterol ester hydrolase 1 (Homo sapiens) (UniProt Q6PIU2); details: A549, Lysate
Description: Binding affinity to NCEH1 in human A549 cells lysates grown on SILAC media at 10 uM incubated for 1 hr by LC-MS/MS analysis relative to untreated control

[34] = target: Reticulon-4 (Homo sapiens) (UniProt Q9NQC3); details: A549, Lysate
Chain of Reticulon-4 (Homo sapiens) (Q9NQC3 whole entry): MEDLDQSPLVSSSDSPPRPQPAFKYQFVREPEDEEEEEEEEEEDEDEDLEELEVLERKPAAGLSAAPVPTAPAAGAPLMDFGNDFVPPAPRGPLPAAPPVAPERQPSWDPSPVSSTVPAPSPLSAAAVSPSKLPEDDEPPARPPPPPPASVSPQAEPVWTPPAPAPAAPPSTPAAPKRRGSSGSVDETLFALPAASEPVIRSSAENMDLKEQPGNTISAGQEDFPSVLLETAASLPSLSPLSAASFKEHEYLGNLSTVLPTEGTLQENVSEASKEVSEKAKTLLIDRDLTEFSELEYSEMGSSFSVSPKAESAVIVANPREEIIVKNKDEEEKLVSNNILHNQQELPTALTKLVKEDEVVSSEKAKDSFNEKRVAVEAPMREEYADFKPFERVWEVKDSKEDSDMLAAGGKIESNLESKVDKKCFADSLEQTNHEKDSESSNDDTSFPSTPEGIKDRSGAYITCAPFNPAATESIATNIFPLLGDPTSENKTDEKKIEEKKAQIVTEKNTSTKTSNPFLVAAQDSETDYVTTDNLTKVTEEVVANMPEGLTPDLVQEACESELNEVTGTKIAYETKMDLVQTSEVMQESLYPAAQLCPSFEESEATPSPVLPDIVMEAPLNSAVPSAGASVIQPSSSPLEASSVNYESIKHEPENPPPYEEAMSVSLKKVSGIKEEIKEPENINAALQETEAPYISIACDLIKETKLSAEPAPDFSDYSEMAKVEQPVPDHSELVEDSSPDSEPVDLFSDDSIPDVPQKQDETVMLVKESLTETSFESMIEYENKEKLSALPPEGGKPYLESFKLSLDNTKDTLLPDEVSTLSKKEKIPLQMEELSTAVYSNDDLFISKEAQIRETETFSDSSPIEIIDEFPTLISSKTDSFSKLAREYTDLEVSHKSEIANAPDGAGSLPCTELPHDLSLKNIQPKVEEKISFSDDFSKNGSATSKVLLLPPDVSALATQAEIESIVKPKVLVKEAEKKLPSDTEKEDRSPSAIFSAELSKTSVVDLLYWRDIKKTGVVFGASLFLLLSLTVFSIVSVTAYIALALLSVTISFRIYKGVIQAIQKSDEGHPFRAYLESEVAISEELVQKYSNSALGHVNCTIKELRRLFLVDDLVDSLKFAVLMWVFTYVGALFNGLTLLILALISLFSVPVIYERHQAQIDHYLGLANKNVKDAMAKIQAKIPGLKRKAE
Description: Binding affinity to RTN4 in human A549 cells lysates grown on SILAC media at 10 uM incubated for 1 hr by LC-MS/MS analysis relative to untreated control

[35] = target: Ubiquitin carboxyl-terminal hydrolase 10 (Homo sapiens) (UniProt Q14694); details: A549, Lysate
Description: Binding affinity to USP10 in human A549 cells lysates grown on SILAC media at 10 uM incubated for 1 hr by LC-MS/MS analysis relative to untreated control

[36] = target: Histidine--tRNA ligase, cytoplasmic (Homo sapiens) (UniProt P12081); details: A549, Lysate
Description: Binding affinity to HARS in human A549 cells lysates grown on SILAC media at 10 uM incubated for 1 hr by LC-MS/MS analysis relative to untreated control

[37] = target: Minor histocompatibility antigen H13 (Homo sapiens) (UniProt Q8TCT9); details: A549, Lysate
Chain of Minor histocompatibility antigen H13 (Homo sapiens) (Q8TCT9 whole entry): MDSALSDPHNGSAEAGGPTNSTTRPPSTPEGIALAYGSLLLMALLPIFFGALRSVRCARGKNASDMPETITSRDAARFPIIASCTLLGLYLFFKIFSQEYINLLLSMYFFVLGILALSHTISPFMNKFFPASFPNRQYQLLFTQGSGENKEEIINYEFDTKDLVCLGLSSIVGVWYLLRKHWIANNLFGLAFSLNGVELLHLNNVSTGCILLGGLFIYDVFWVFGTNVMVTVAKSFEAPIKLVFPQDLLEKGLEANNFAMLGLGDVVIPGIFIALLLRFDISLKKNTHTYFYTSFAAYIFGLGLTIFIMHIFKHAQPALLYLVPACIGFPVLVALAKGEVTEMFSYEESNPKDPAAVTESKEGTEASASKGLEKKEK
Description: Binding affinity to HM13 in human A549 cells lysates grown on SILAC media at 10 uM incubated for 1 hr by LC-MS/MS analysis relative to untreated control

[38] = target: Glutathione S-transferase omega-1 (Homo sapiens) (UniProt P78417); details: A549, Lysate
Description: Binding affinity to GSTO1 in human A549 cells lysates grown on SILAC media at 10 uM incubated for 1 hr by LC-MS/MS analysis relative to untreated control

[39] = target: G patch domain-containing protein 8 (Homo sapiens) (UniProt Q9UKJ3); details: A549, Lysate
Description: Binding affinity to GPATCH8 in human A549 cells lysates grown on SILAC media at 10 uM incubated for 1 hr by LC-MS/MS analysis relative to untreated control

[40] = target: Ubiquitin carboxyl-terminal hydrolase 5 (Homo sapiens) (UniProt P45974); details: A549, Lysate
Description: Binding affinity to USP5 in human A549 cells lysates grown on SILAC media at 10 uM incubated for 1 hr by LC-MS/MS analysis relative to untreated control

[41] = target: Mitochondrial antiviral-signaling protein (Homo sapiens) (UniProt Q7Z434); details: A549, Lysate
Description: Binding affinity to MAVS in human A549 cells lysates grown on SILAC media at 10 uM incubated for 1 hr by LC-MS/MS analysis relative to untreated control

[42] = target: T1, 1,25-dihydroxyvitamin D(3) 24-hydroxylase, mitochondrial; assay: Binding affinity to CYP24A1 in human A549 cells lysates grown on SILAC media at 10 uM incubated for 1 hr by LC-MS/MS analysis relative to untreated control; format: subcellular, Lysate; details: a549, 1 h
[43] = target: Perilipin-3 (Homo sapiens) (UniProt O60664); details: A549, Lysate
Description: Binding affinity to PLIN3 in human A549 cells lysates grown on SILAC media at 10 uM incubated for 1 hr by LC-MS/MS analysis relative to untreated control

[44] = target: SAFB-like transcription modulator (Homo sapiens) (UniProt Q9NWH9); details: A549, Lysate

Question: What does the source list for `C#CCOC(=O)/C(C)=C(C)\C=C\[C@](C)(O)[C@H]1CC[C@H]2[C@@H]3[C@@H]4O[C@@H]4C4=CC=CC(=O)[C@]4(C)[C@H]3CC[C@@]21C`?
Answer: log2FC [1]: 1.89; log2FC [2]: 2.81; log2FC [3]: 4.85; log2FC [4]: 2.45; log2FC [5]: 1.02; log2FC [6]: 2.11; log2FC [7]: 2.14; log2FC [8]: 4.61; log2FC [9]: 3.66; log2FC [10]: 2.46; log2FC [11]: 2.05; log2FC [12]: 2.03; log2FC [13]: 2.96; log2FC [14]: 1.28; log2FC [15]: 1.74; log2FC [16]: 1.79; Activity (SH-SY5Y [17]): 41%; log2FC [18]: 4.38; Activity (SH-SY5Y [19]): 40%; log2FC [20]: 3.04; log2FC [21]: 1.88; log2FC [22]: 1.47; log2FC [23]: 1.25; Activity (SH-SY5Y [24]): 44%

Question: With `CC1=C(C)C(=O)O[C@@H]([C@](C)(O)[C@H]2CC[C@H]3[C@@H]4[C@@H]5O[C@@H]5[C@@]5(O)CC=CC(=O)[C@]5(C)[C@H]4CC[C@]23C)C1` [WITHANOLIDE A] as the compound, how does the Activity (SH-SY5Y [17]) read?
Answer: The Activity was 46%.

Question: And the Activity (SH-SY5Y [19])?
Answer: Its Activity is 46%.

Question: What about the Activity (SH-SY5Y [24]) of the same compound?
Answer: Its Activity is 47%.

Question: For `C#CCO/N=C1/CC[C@]2(C)[C@H]3CC[C@]4(C)[C@@H]([C@@](C)(O)[C@H]5CC(C)=C(C)C(=O)O5)CC[C@H]4[C@@H]3[C@@H]3O[C@@H]3[C@@]2(O)C1`, which Activity (SH-SY5Y [17]) is on record?
Answer: Its Activity is 50%.

Question: What does the source list for `C#CCOC(=O)/C(C)=C(C)\C=C\[C@](C)(O)[C@H]1CC[C@H]2[C@@H]3[C@@H]4O[C@@H]4[C@@]4(O)CC=CC(=O)[C@]4(C)[C@H]3CC[C@@]21C`?
Answer: log2FC [25]: 2.34; Activity [26]: Active; log2FC [3]: 3.3; log2FC [27]: 1.41; log2FC [28]: 4.11; log2FC [29]: 2.08; log2FC [30]: 1.63; log2FC [31]: 7.1; log2FC [6]: 1.38; log2FC [11]: 2.16; log2FC [32]: 3.09; log2FC [33]: 1.16; log2FC [34]: 8.71; log2FC [12]: 1.96; log2FC [13]: 1.18; log2FC [16]: 2.99; Activity (SH-SY5Y [17]): 40%; log2FC [35]: 1.27; log2FC [36]: 1.86; log2FC [37]: 3.52; log2FC [38]: 3.99; log2FC [18]: 3.01; Activity (SH-SY5Y [19]): 38%; log2FC [39]: 2.25; log2FC [40]: 1.08; log2FC [41]: 1.62; log2FC [42]: 1.875; Activity (SH-SY5Y [24]): 40%

Question: What does the source list for `C#CCO/N=C1\C=CC[C@]2(O)[C@H]3O[C@H]3[C@H]3[C@@H]4CC[C@H]([C@@](C)(O)[C@H]5CC(C)=C(C)C(=O)O5)[C@@]4(C)CC[C@@H]3[C@@]12C`?
Answer: log2FC [43]: 0.964; Activity [26]: Active; log2FC [44]: 2.27; log2FC [28]: 1.16; log2FC [8]: 7.33; log2FC [34]: 3.73; Activity (SH-SY5Y [17]): 58%; log2FC [37]: 2.25; Activity (SH-SY5Y [19]): 37%; Activity (SH-SY5Y [24]): 33%

Question: Which Activity (SH-SY5Y [17]) does the source give for `C#CCO/N=C1\CCC[C@]2(O)[C@H]3O[C@H]3[C@H]3[C@@H]4CC[C@H]([C@@](C)(O)[C@H]5CC(C)=C(C)C(=O)O5)[C@@]4(C)CC[C@@H]3[C@@]12C` here?
Answer: The Activity was 48%.

Question: With `CC#C[C@]1(O)CC[C@H]2[C@@H]3CCC4=CC(=O)CCC4=C3[C@@H](c3ccc(N(C)C)cc3)C[C@@]21C` [MIFEPRISTONE] as the compound, how does the Activity (SH-SY5Y [17]) read?
Answer: Its Activity is 50%.

Question: `C[C@@H]1C[C@H]2[C@@H]3CCC4=CC(=O)C=C[C@]4(C)[C@@]3(F)[C@@H](O)C[C@]2(C)[C@@]1(O)C(=O)CO` [DEXAMETHASONE] was tested. Which Activity (SH-SY5Y [17]) did it give?
Answer: The Activity was 16%.

Question: Which Activity (SH-SY5Y [17]) does the source give for `CC1=C(/C=C/C(C)=C/C=C/C(C)=C/C(=O)O)C(C)(C)CCC1` [TRETINOIN] here?
Answer: Its Activity is 45%.

Question: Which Activity (SH-SY5Y [17]) does the source give for `C#CCO/N=C1/C=C[C@]2(C)[C@H]3CC[C@]4(C)[C@@H]([C@@](C)(O)[C@H]5CC(C)=C(C)C(=O)O5)CC[C@H]4[C@@H]3[C@@H]3O[C@@H]3[C@@]2(O)C1` here?
Answer: Its Activity is 55%.
